Results from patent US8372600B2, “Method and apparatus for measuring changes in cell volume” (priority 2004, dated 2013).

Columns and labels:
[1] = target: T1, P2X7 (purinergic ion channels) (Homo sapiens, UniProt Q99572); assay: Volume change of HEK cells transfected with P2X7, measured in the chamber; format: cell-based
T1 construct: expressed in transfected cells; host or cells: HEK cells
T1 sequence (Q99572 1-595): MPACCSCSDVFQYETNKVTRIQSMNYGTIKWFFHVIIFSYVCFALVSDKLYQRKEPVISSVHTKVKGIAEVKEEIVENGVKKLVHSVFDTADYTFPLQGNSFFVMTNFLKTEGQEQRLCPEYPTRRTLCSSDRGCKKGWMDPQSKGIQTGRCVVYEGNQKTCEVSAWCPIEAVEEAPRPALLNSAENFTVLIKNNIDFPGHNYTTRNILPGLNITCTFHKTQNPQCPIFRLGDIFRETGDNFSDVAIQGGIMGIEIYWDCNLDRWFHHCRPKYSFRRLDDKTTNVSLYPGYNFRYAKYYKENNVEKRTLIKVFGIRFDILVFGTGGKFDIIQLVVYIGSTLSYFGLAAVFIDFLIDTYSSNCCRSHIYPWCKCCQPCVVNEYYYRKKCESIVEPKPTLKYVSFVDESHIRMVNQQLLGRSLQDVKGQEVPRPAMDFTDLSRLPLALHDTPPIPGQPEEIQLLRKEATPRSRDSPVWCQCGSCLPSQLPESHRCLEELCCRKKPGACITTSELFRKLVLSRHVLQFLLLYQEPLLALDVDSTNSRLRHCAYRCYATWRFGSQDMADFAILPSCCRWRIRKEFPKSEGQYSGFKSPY
From the text: The chamber is sensitive to more than toxic or anisotonic media. […] Thus, the device can serve as a coarse grained substitute for common (but slow) electrophysiologically assays.

astrocyte RVD = assay: Astrocyte regulatory volume decrease (RVD) under a 188 mOsm hypotonic stimulus, measured as chamber resistance in the microfluidic chip; format: cell-based, rat; details: 188 mOsm stimulus; for Effect on RVD: FIG. 13
From the text: A microfluidic chip comprising a channel 15 μm deep and 1.5 mm wide was fabricated an connected to a fluid inlet and a fluid outlet. Along the length of the channel, there were two chambers (labeled 22 and 24 in FIGS. 1-3). Chamber 22 was configured for measuring cell volume and comprised a depth of 15 μm. Chamber 24 was deeper (55 μm) and served as a calibrating chamber for monitoring solution resistivity. Thin film platinum electrodes disposed in each chamber formed a four-point probe for measuring the chamber impedance. The chip was mounted on an acrylic platform to mate with external fluid connections. For testing adherent cells, the cells were cultured on glass coverslips and inverted on top of the chip so that the cells faced chamber 22. The coverslip was pressed against the chip with a clamp that applied a uniform force of approximately 50 N. For the electrical measurements, an active current source providing 1 μA of a 50 Hz sinusoid was applied to the two outer electrodes. Low frequency stimulation was utilized to minimize the dielectric loss in the silicon and to reduce the demands on the common mode rejection of the voltage amplifier. The voltage between the two inner electrodes was measured using a homemade instrumentation amplifier with input currents <1 pA to reduce polarization. A lock-in amplifier provided rectification and filtering.
To test the microfluidic chip performance with living cells, examination of the volume regulatory response of rat astrocytes was conducted. Solution osmolality was adjusted using mannitol, which allowed a constant ionic strength to be maintained. For the most critical tests, the solution conductivities were finely titrated to be equal at all osmotic pressures; the flow rate was constant at approximately 0.3 μl/s. FIGS. 10 and 11 show the astrocytes' response to perfusion with hypotonic and hypertonic stimuli. Hypotonic media caused a rapid (˜1 min) increase in volume followed by a slow (10 min) decrease—the well known regulatory volume decrease (RVD). RVD in astrocytes is due to the efflux of KCl and neutral organic osmolytes such as taurine. The time course and extent of RVD using 188, 220, and 273 mOsm solutions (FIG. 10) are in agreement with published data. RVD in other cell types was tested, including HEK and MDCK, and similar responses were identified. However, the RVI was only observed with mild stimuli (<345 mOsm) (FIG. 11). Similar results have been previously reported for astrocytes. The RVI under the above conditions is driven by Na^+, K^+, and Cl^− fluxes through a co-transporter.
A microfluidic chip was tested by screening peptides isolated from the tarantula Grammostola spatulata. The peptides were added to a hypotonic perfusate and their effects on astrocyte RVD were examined. […]

GH3 cells = details: previously known; cited from earlier work
[2] = system: E. Coli strain (BL21(DE3)); assay: Antibiotic sensitivity of suspended bacteria: growth monitored by chamber resistance; format: cell-based; details: 50 μg/ml and 10 μg/ml, 24° C., FIG. 14
Description: To test the microfluidic chip performance with suspended cells, the first chamber was perfused with an E. Coli suspension. The E. Coli strain (BL21(DE3)) harbors a plasmid that confers resistance to kanamycin. The cells were tested for antibiotic sensitivity by adding varying concentrations of carbenicillin—an antibiotic to which the bacteria are susceptible. After filling the chamber with bacteria, flow was stopped and the chamber resistance monitored. […] By adding specific ligands, such as antibodies, to the walls of the measuring chamber, specific microorganisms can be purified, concentrated and assayed in a single step. Since cellular organelles are similar in size to bacteria, the present invention can also be used to study the metabolism of mitochondria, chloroplasts, and vesicles or organelles such as the ER.

## Nc1ncnc2c1ncn2[C@@H]1O[C@H](COP(=O)(O)OP(=O)(O)OP(=O)(O)O)[C@@H](O)[C@H]1O [ATP]
[1]
  Cell volume response following activation: reversible volume changes

## GsMTx1
Astrocyte RVD; 100 pM peptide in hypotonic perfusate
  Reduction of RVD: about 50%
Astrocyte RVD; 1 nM peptide in hypotonic perfusate
  Effect on RVD: completely blocked
Astrocyte RVD; 10 nM peptide in hypotonic perfusate
  Effect on RVD: completely blocked
Astrocyte RVD; 1 μM peptide in hypotonic perfusate
  Effect on RVD: completely blocked
GH3 cells
  Effect on swelling-induced Ca2+ uptake: block

## CC1(C)S[C@@H]2[C@H](NC(=O)C(C(=O)O)c3ccccc3)C(=O)N2[C@H]1C(=O)O (some centres unmarked) [Carbenicillin, carbenicillin]
[2]
  Time until growth was visibly slowed: ≤ 15 min
[2]; concentration dependent
  Effect on bacterial growth: visibly slowed growth
